The numbers were not newly measured in patent US8293845B2, “Irritation mitigating polymers and uses therefor” (priority 2006, dated 2012), which cites them from elsewhere.

For the series the following is noted: from Schoenberg, Household & Personal Products Industry 1979.

Consider `CCCCCCCCCCCCOS(=O)(=O)[O-].[Na+]` [sodium lauryl sulfate], for which the eye irritation result is reported as “causes significant eye irritation”.
